Laboratory results: ChEMBL document CHEMBL1143095, “Discovery of [(3-bromo-7-cyano-2-naphthyl)(difluoro)methyl]phosphonic acid, a potent and orally active small molecule PTP1B inhibitor” (Bioorg Med Chem Lett, 2008)

Columns and labels:
[1] = target: T1, Tyrosine-protein phosphatase non-receptor type 1 (Homo sapiens, UniProt P18031); assay: Inhibition of PTP1B by fluorescein diphosphate assay
T1 sequence (P18031 whole entry): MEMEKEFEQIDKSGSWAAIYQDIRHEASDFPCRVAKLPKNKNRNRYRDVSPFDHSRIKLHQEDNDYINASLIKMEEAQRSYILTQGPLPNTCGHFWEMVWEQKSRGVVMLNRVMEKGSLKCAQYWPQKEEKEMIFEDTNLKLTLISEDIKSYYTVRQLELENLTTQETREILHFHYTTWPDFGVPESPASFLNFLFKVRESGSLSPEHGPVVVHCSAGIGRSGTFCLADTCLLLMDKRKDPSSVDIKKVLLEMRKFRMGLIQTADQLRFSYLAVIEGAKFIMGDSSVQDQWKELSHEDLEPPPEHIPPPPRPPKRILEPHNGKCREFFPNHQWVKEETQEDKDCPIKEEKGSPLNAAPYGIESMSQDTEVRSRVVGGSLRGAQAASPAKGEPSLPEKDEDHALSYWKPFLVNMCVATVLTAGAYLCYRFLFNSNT

[2] = target: T2, Receptor-type tyrosine-protein phosphatase C (Homo sapiens, UniProt P08575); assay: Inhibition of CD45 by fluorescein diphosphate assay
T2 sequence (P08575 whole entry): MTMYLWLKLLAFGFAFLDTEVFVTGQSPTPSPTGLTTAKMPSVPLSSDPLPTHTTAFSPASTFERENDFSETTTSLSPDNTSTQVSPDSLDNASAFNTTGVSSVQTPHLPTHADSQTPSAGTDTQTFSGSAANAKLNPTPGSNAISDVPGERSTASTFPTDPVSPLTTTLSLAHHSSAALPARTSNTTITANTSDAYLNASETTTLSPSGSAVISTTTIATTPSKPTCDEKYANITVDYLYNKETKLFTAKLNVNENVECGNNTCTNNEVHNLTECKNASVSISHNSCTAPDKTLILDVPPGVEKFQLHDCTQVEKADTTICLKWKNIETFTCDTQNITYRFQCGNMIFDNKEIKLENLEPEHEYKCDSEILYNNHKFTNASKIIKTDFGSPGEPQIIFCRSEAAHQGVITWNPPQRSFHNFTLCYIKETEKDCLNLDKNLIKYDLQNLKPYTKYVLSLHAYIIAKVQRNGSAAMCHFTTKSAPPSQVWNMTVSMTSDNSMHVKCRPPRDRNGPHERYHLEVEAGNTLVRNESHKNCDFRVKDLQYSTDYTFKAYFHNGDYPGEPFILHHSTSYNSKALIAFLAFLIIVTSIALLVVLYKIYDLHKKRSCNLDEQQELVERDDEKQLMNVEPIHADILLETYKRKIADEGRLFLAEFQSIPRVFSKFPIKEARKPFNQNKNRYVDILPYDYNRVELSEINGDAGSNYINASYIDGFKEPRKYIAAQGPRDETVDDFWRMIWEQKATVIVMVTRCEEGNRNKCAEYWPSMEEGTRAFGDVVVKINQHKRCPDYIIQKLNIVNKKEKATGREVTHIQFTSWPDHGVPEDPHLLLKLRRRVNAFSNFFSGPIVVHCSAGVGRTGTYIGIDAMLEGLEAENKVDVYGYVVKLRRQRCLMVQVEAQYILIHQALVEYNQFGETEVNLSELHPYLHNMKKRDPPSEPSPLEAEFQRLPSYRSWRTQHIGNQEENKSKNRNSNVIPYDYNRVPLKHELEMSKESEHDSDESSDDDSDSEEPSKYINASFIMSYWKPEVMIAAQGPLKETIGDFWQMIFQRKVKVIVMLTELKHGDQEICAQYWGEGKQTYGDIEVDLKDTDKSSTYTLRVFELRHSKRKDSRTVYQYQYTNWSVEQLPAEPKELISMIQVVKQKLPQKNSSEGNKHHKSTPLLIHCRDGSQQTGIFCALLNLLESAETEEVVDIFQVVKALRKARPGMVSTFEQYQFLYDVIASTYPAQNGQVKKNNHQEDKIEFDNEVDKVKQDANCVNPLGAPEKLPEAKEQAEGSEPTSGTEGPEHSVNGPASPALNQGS

[3] = Cmax in mouse plasma at 20 mg/kg, po after 2 hrs; format: ADME, organism-based; design: dose 20 mg/kg, route oral
[4] = Clearance in DIO mouse at 5 mg/kg, iv and 20 mg/kg, po; format: ADME, organism-based; conditions: in vivo
[5] = Clearance in rat at 5 mg/kg, iv and 20 mg/kg, po; format: ADME, organism-based; conditions: in vivo
[6] = Elimination half life in rat at 5 mg/kg, iv and 20 mg/kg, po; format: ADME, organism-based; conditions: in vivo
Mus musculus [7] = assay: Inhibition of glucose excursion in DIO mouse glucose challenged 2 hrs before the test at 3 mg/kg by oral glucose tolerance test; format: functional
[8] = Elimination half life in Squirrel monkey at 5 mg/kg, iv and 10 mg/kg, po; format: ADME, organism-based, Saimiri sciureus; conditions: in vivo
Mus musculus [9] = assay: Inhibition of glucose excursion in DIO mouse glucose challenged 2 hrs before the test at 10 mg/kg by oral glucose tolerance test; format: functional
[10] = Oral bioavailability in DIO mouse at 5 mg/kg, iv and 20 mg/kg, po; format: ADME, organism-based; conditions: in vivo
[11] = Clearance in Squirrel monkey at 5 mg/kg, iv and 10 mg/kg, po; format: ADME, organism-based, Saimiri sciureus; conditions: in vivo
[12] = Oral bioavailability in Squirrel monkey at 5 mg/kg, iv and 10 mg/kg, po; format: ADME, organism-based, Saimiri sciureus; conditions: in vivo
Mus musculus [13] = species: Mus musculus; assay: Inhibition of glucose excursion in DIO mouse glucose challenged 2 hrs before the oral glucose tolerance test; format: functional
[14] = Cmax in DIO mouse at 5 mg/kg, iv and 20 mg/kg, po; format: ADME, organism-based; conditions: in vivo
[15] = Drug level in DIO mouse at 5 mg/kg, iv and 20 mg/kg, po after 24 hrs; format: ADME, organism-based; conditions: in vivo, read-out: Drug uptake
[16] = Oral bioavailability in rat at 5 mg/kg, iv and 20 mg/kg, po; format: ADME, organism-based; conditions: in vivo
Mus musculus [17] = assay: Inhibition of glucose excursion in DIO mouse glucose challenged 2 hrs before the test at 1 mg/kg by oral glucose tolerance test; format: functional
[18] = Elimination half life in DIO mouse at 5 mg/kg, iv and 20 mg/kg, po; format: ADME, organism-based; conditions: in vivo
[19] = Drug level in rat at 5 mg/kg, iv and 20 mg/kg, po after 24 hrs; format: ADME, organism-based; conditions: in vivo, read-out: Drug uptake
[20] = Drug level in Squirrel monkey at 5 mg/kg, iv and 10 mg/kg, po after 24 hrs; format: ADME, organism-based, Saimiri sciureus; conditions: in vivo, read-out: Drug uptake
[21] = Cmax in Squirrel monkey at 5 mg/kg, iv and 10 mg/kg, po; format: ADME, organism-based, Saimiri sciureus; conditions: in vivo
[22] = Cmax in rat at 5 mg/kg, iv and 20 mg/kg, po; format: ADME, organism-based; conditions: in vivo
[23] = Cmax in C57BL/6 mouse plasma at 10 mg/kg; format: ADME, organism-based; design: dose 10 mg/kg
[24] = Oral bioavailability in rat; format: ADME, organism-based; conditions: in vivo
[25] = Elimination half life in rat plasma; format: ADME, organism-based
[26] = Cmax in rat plasma at 20 mg/kg; format: ADME, organism-based; design: dose 20 mg/kg

Row | SMILES | IC50 [1] [µM] | IC50 [2] [µM] | further results
1 | COCc1ccc2cc(Br)c(C(F)(F)P(=O)(O)O)cc2c1 | 0.51 | > 50 | –
2 | N#CCc1ccc2cc(Br)c(C(F)(F)P(=O)(O)O)cc2c1 | 0.09 | 26.8 | Cmax [3]: 6 µM
3 | CC(=O)NCc1ccc2cc(Br)c(C(F)(F)P(=O)(O)O)cc2c1 | 1.5 | > 50 | –
4 | CS(=O)(=O)Cc1ccc2cc(Br)c(C(F)(F)P(=O)(O)O)cc2c1 | 1.3 | > 50 | –
5 | N#Cc1ccc2cc(Br)c(C(F)(F)P(=O)(O)O)cc2c1 | – | > 50 | clearance [4]: 42.6 mL/h/kg; clearance [5]: 1.8 mL/h/kg; half-life [6]: > 17 h; inhibition in vivo at 3 mg/kg (Mus musculus [7]): 80%; half-life [8]: > 30 h; inhibition in vivo at 10 mg/kg (Mus musculus [9]): 100%; bioavailability [10]: 24%; clearance [11]: 1.2 mL/h/kg; bioavailability [12]: 2%; ED50 (Mus musculus [13]): 0.8 mg/kg; Cmax [14]: 17.4 µM; concentration at 24 h [15]: 9 µM; bioavailability [16]: 4%; inhibition in vivo at 1 mg/kg (Mus musculus [17]): 60%; half-life [18]: 6 h; concentration at 24 h [19]: 45.3 µM; concentration at 24 h [20]: 19 µM; Cmax [21]: 24 µM; Cmax [22]: 75.6 µM
6 | Cc1ccc2ccc(C(F)(F)P(=O)(O)O)cc2n1 | > 50 | > 50 | –
7 | N#Cc1ccc2cc(C(F)(F)P(=O)(O)O)c(Br)cc2c1 | 0.31 | > 50 | –
8 | NC(=O)c1ccc2cc(Br)c(C(F)(F)P(=O)(O)O)cc2n1 | 0.25 | > 50 | Cmax [23]: 0.3 µM
9 | O=P(O)(O)C(F)(F)c1cc2ccccc2cc1Br | – | – | Ki [1]: 179 µM
10 | O=C(NCc1ccccc1)c1ccc2cc(Br)c(C(F)(F)P(=O)(O)O)cc2n1 | 0.045 | > 50 | –
11 | O=C(Nc1cccc(F)c1)c1ccc2cc(Br)c(C(F)(F)P(=O)(O)O)cc2n1 | 0.027 | > 50 | –
12 | O=C(Nc1ccccc1)c1ccc2cc(Br)c(C(F)(F)P(=O)(O)O)cc2n1 | 0.06 | > 50 | –
13 | O=P(O)(O)C(F)(F)c1cc2nc(/C=C/c3ccccc3)ccc2cc1Br | 0.16 | > 50 | –
14 | Cc1ccc2cc(Br)c(C(F)(F)P(=O)(O)O)cc2n1 | 14 | > 50 | bioavailability [24]: 5%; half-life [25]: > 8 h; Cmax [26]: 43.3 µM
15 | CNC(=O)c1ccc2cc(Br)c(C(F)(F)P(=O)(O)O)cc2n1 | 1.26 | > 50 | –
16 | Cc1ccc2cc(Br)c(C(F)(F)P(=O)(O)O)cc2c1 | 0.33 | > 50 | –
17 | CC(Cc1ccc(C(F)(F)P(=O)(O)O)cc1)(c1ccccc1)n1nnc2ccccc21 (centres undefined) | 0.016 | 50 | –
18 | O=C(O)c1cccc(/C=C/c2ccc3cc(Br)c(C(F)(F)P(=O)(O)O)cc3n2)c1 | 0.007 | 37.8 | –
19 | O=C(c1ccccc1)C(Cc1ccc(C(F)(F)P(=O)(O)O)c(Br)c1)c1ccccc1 (centres undefined) | – | > 50 | –
